Measured values reported in patent publication US20240279227A1, “FUSED HETEROCYCLIC DERIVATIVES” (Janssen Sciences Ireland Unlimited Company, priority 2021, published 2024).

Experiments:
[1] = Human liver microsome stability; format: in vitro ADME; conditions: pooled human liver microsomes 0.5 mg/mL, 1 μM compound, NADPH 1 mM, pH 7.4, 37° C., 0-60 min
Outline: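 Pooled human liver microsomes (0.5 mg/mL) incubated at 37 °C with 1 μM compound in 0.1 M phosphate pH 7.4, 1 mM MgCl2; 1 mM NADPH starts reaction. Samples quenched in acetonitrile at 0–60 min, analysed by LC-MS against internal standard; half-life from slope of ln peak-area ratio versus time.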

[2] = test system: HBV; test: Anti-HBV activity in HepG2.117 cell line (intracellular HBV DNA, real-time PCR); format: cell-based, hepatitis B virus; conditions: HepG2.117 cells, HBV replication induced, 3 days of treatment, intracellular HBV DNA by real-time PCR
Outline: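 HepG2.117 cells (Tet-off, doxycycline-free HBV replication) induced for HBV replication, then exposed to serially diluted compound for 3 days. Intracellular HBV DNA quantified by real-time PCR with HBV-specific primers and probe.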

[3] = test system: HepG2 or HepG2.117 cells; test: Cytotoxicity, ATPlite Luminescence Assay; format: cell-based, human; conditions: 3-days incubation unless marked with *, ATPlite viability
Outline: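 HepG2/HepG2.117; compound exposure 3–4 d; viability readout = ATPlite luminescence.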

Row | Structure (SMILES) | HLM Metabolism t1/2 [1] | EC50 [2] | CC50 [3]
1 | CC(c1ccc(OC(F)F)cc1)N1C[C@@H](C(=O)NC2CC2)n2nc3c(c2C1=O)CN(C(=O)c1ccc(Cl)c(C#N)c1)[C@H](C)C3 (single isomer, unassigned) [Compound 26B, (3R,7S)-2-(4-chloro-3-cyanobenzoyl)-N-cyclopropyl-9-((S*)-1-(4-(difluoromethoxy)phenyl)ethyl)-3-methyl-10-oxo-1,2,3,4,7,8,9,10-octahydropyrido[4′,3′:3,4]pyrazolo[1,5-a]pyrazine-7-carboxamide] | 1.12 h | 0.09 µM | > 50 µM
2 | CNC(=O)[C@@H]1CN(C(C)c2ccc(C3CC3)nc2)C(=O)c2c3c(nn21)C[C@@H](C)N(C(=O)c1ccc(Cl)c(Cl)c1)C3 (single isomer, unassigned) [Compound 32B, (3R,7S)-9-((S*)-1-(6-cyclopropylpyridin-3-yl)ethyl)-2-(3,4-dichlorobenzoyl)-N,3-dimethyl-10-oxo-1,2,3,4,7,8,9,10-octahydropyrido[4′,3′:3,4]pyrazolo[1,5-a]pyrazine-7-carboxamide] | >3 h | 0.011 µM | 48.7 µM
